From patent US8158575B2, “Agent for the prevention and treatment of sexually transmitted diseases-I” (priority 2001, dated 2012)

What was measured:
[1] = test system: HIV-2 (ROD); experiment: Anti-retroviral activity in HIV-infected MT-4 cells (MTT); format: cell-based; conditions: strain ROD (HIV-2)
Procedure: (§1) The human immunodeficiency virus strains used were HIV-1 (IIIB)^1 and HIV-2 (ROD)^2. Anti-retroviral activity and cytotoxicity measurements were carried out in parallel. […] After the MT-4 cells were allowed to proliferate for 5 days, the number of viable cells was quantified by a tetrazolium-based calorimetric 3-(4,5-dimethylthiazol-2-yl)-2,5-diphenyltetrazolium bromide (MTT) procedure in 96-well microtrays.^3
(§2) In all of these assays, viral input (viral multiplicity of infection, MOI) was 0.01, or 100 times the 50% cell culture infective dose (CCID50). […] Average EC50 and CC50 values for several separate experiments are presented as defined above. […] SI is the antiviral selectivity index CC50/EC50.

[2] = test system: human papillomavirus type 6b VLPs; experiment: Inhibition of uptake of HPV virus-like particles into A431 cells (flow cytometry); format: cell-based
Procedure: The compound was evaluated for its ability to inhibit the binding and uptake of human papillomavirus virus-like particles to a human epithelial cell line.
The compound was tested at a range of six dilutions as inhibitor of binding and of uptake of Papillomavirus fluorochrome-tagged Virus-Like-Particles (VLPs) of human papillomavirus type 6b. […] Assay of binding and uptake was determined using flow cytometry and inhibition of binding was reported as a percentage with respect to the binding observed in the absence of inhibitor. The tests were performed in two independent assays
Cells. The human epidermoid carcinoma cell line A431 was purchased from the American Type Culture Collection at passage 30 (CRL-1555, Batch F-13530) and maintained in DMEM in 10% FCS.
Human papillomavirus type 6b VLPs were grown and purified according to standard operating procedures. Particles were labelled with a fluorochrome.
The compound was re-dissolved in sterile water to the concentrations of 5 mM and used fresh for the first assay before being frozen at −20° C. It was then thawed for the second assay.
A T75 flask of A431 cells was washed with 10 ml of PBS/EDTA (0.05%) for 5 minutes at 37° C. before being treated with 2 ml trypsin for a further 5 minutes at 37° C. […]
Results were analysed using WinLisT. […]

[3] = test system: HIV-1 (IIIB); format: cell-based; conditions: strain IIIB (HIV-1), MT-4 cells
Procedure: as §1, §2

[4] = test system: GHOST(3) X4/R5 cell line; experiment: XTT cell viability in the CD4-dependent transmission assay; format: cell-based, human
Procedure: The […] is carried out essentially as described for the CD4-independent transmission assay except for the use of the CD4 positive GHOST(3) X4/R5 cell line. This cell line is derived from the HOS (human osteosarcoma) cell line that is negative for HIV coreceptor and CD4 expression. The cell line is engineered to express T4 (CD4), R5 and X4 via non-selectable retroviral vectors and an HIV-2 LTR hGFP construct with a hygromycin selectable marker. The cell lines are handled and cultured as described above for the CD4-independent HIV inhibition assay, with the exception that 2.5×10^4 GHOST(3) X4/R5 and 5×10^2 mitomycin C treated H9/SK-1 cells are used in the assay. Addition of compounds, mitomycin C treatment and post-transmission washing to remove the H9/SK-1 cells are performed as described above to allow comparability of the two antiviral assays. Virus replication is assessed at 24 h post infection, following 3 washes, by measurement of cell-associated p24 by ELISA to ensure a single round of infection in the presence of CD4. Compound toxicity and cell viability are assessed by XTT dye reduction.

[5] = test system: HeLa CD4 LTR […]-gal cells; experiment: XTT toxicity on sister plate of the attachment assay; format: cell-based
Procedure: This assay is designed to detect compounds that interact with the cell and block virus attachment, and/or compounds which interact with the forming attachment/fusion complex. The attachment assay is performed with HeLa CD4 LTR […]-gal cells. HeLa CD4 LTR […]-gal cells are routinely cultured with the required selection antibiotics. Twenty-four h prior to initiation of the assay the cells are trypsinized, counted and 1×10^4 cells placed in a 0.2 cm well in media without selection antibiotics. At 24 h media is removed and compound in media placed on the cells and incubated for 15 min at 37° C. A known titer of the IIIB strain of HIV is then added to the wells and the incubation continued for 1 h. At the end of the incubation the wells are washed 3 times with media and the culture continued for 40 to 48 h. At termination of the assay, media is removed and […]-galactosidase enzyme expression determined by chemiluminescence per manufacturers instructions (Tropix Gal-screen™, Bedford Mass.) by a single step chemiluminescent method using a single solution to lyse the cells and detect […]-galactosidase enzyme activity. Compound toxicity is monitored on a sister plate by XTT dye reduction. […] The virus adsorption interval of 1 h is sufficiently short that AZT, which requires phosphorylation to its active tri-phosphate form (AZT-TTP), is not active in this assay.

BHAlyslys2lys4lys8lys16[NH—CO—CH2)O-3,6-Naphthyl-(SO3Na)2]32 [SPL-7013]
EC90 [1]: 4.86 µg/mL | EC50 ([1]; 5 days): 3.26 µg/mL | Uptake of VLPs at maximal inhibition (% of VLPs alone) ([2]; 1 μM, HPV 6b VLPs): 26% | Uptake inhibition (in words) ([2]; at 1 μM and 10 nM): shown uptake inhibition | EC90 [3]: 0.954 µg/mL | EC50 ([3]; 5 days): 0.45 µg/mL | CD4-Dependent Transmission Assay TC50 [4]: >100 µg/mL | Attachment Assay TC50 [5]: >100 µg/mL
